According to PubChem BioAssay AID1981 (Southern Research Specialized Biocontainment Screening …, 2009):
Values joined by “and” are separate entries in the source; they are usually repeats but may differ in a detail not shown here. Equal entries are not always repeated.

Tested on: S. Typhimurium PhoP-promoter GFP reporter counterscreen, fluorescence, 4 h
Test: S. Typhimurium GFP fluorescence dose response in modified counterscreen for PhoP regulon inhibitor project (AID 1981)

| Structure (SMILES) | IC50 |
| --- | --- |
| O=C1c2ccccc2C(=O)N1c1cccc(-c2csc(Nc3ccc4c(c3)OCO4)n2)c1 | 128 µM |
| CCn1cc(C(=O)O)c(=O)c2cc(F)c(N3CCN(C(=S)NC(=O)c4ccc(F)c(F)c4)CC3)cc21 | 46.6 µM |
| CN1CCN(c2c(F)cc3c(=O)c(C(=O)O)cn4c3c2SCC4)CC1 | 7.73 µM and 6.13 µM |
| Oc1cccc(/C=N/NC(=S)Nc2cccnc2)c1O | 28.7 µM |
| Cc1cccc(Nc2cc(C)c3c(O)cccc3n2)c1C | 82.7 µM |
| C[C@H]1c2cccc(O)c2C(O)=C2C(=O)[C@]3(O)C(O)=C(C(N)=O)C(=O)[C@@H](N(C)C)C3[C@@H](O)C21 (stereo partly drawn) | 1.31 µM |
| Cc1cccc(Nc2nc(NCc3ccco3)c3ccccc3n2)c1 | 37.9 µM |
| COc1ccc(OCC(O)CNc2ccc(Br)cc2)cc1 (stereo not drawn) | 20 µM |
| COc1ccc(C(=O)Cn2nc(CNc3ccc(Br)cc3)[n+]3c2CCCCC3)cc1 | 106 µM |
| O=c1[nH][nH]c(-c2ccccc2O)c1C(C[N+](=O)[O-])c1ccc(Br)cc1 (stereo not drawn) | 66.5 µM |
| N=c1n(Cc2ccccc2)c2ccccc2n1CC(O)COc1ccc(Cl)cc1Cl (stereo not drawn) | 49.4 µM |
| O=C1OC(/C(=C\Nc2ccc(F)cc2F)[N+](=O)[O-])c2ccccc21 (stereo not drawn) | 18.2 µM |
| CCOc1cc(/C=N/N=C(N)N)ccc1OCc1ccc(Cl)cc1 | 56.8 µM |
| CCCCCCCCNC(C)C(O)c1ccc(SC(C)C)cc1 (stereo not drawn) | 121 µM |
| O=C(CSc1nc2ccccc2s1)N/N=C/c1cc([N+](=O)[O-])ccc1O | 85.3 µM |
| C#CCOCCOCCOCCNc1nc(N2CCN(C(=O)CCCCCCCCCCNC(=O)[C@H]([C@@H](C)CC)n3cc(CCCCN=C(N)N)nn3)CC2)nc(N2CCN(C(=O)CCCCCCCCCCNC(=O)[C@H]([C@@H](C)CC)n3cc(CCCCN=C(N)N)nn3)CC2)n1 | 61.1 µM |
| Nc1nc(F)nc2c1ncn2[C@@H]1O[C@H](CO)[C@@H](O)[C@H]1O | 18.3 µM |
| CCn1cc(C(=O)NCCCN(C)C)c(=O)c2cc(F)c(N3CCN(C)CC3)cc21 | 64.3 µM |
| CC(=O)NC(c1cccs1)c1cc([N+](=O)[O-])c2cccnc2c1O (stereo not drawn) | 35.5 µM |
| O=C(O)CCN1C(=O)CC(N2C(=O)/C(=C/c3ccc(Cl)cc3)SC2=S)C1=O (stereo not drawn) | 22.5 µM |
| Cc1[nH]n(-c2ccccc2)c(=O)c1C(C[N+](=O)[O-])c1ccc(F)cc1 (stereo not drawn) | 109 µM |
| O=C(N/N=C/c1cc2c3c(c1O)CCCN3CCC2)c1ccccc1O | 135 µM |
| CN1/C(=C\C=C\C2=[N+](C)c3ccc4ccccc4c3C2(C)C)C(C)(C)c2ccccc21 | 14.1 µM |
| CCn1cc(C(=O)O)c(=O)c2cc(F)c(N3CCN(C(=S)NC(=O)c4c(OC)cccc4OC)CC3)cc21 | 62.8 µM |
| CCCCCCCCCCCCCCCC[n+]1ccc(/C=N/O)cc1 | 30.6 µM |

| Structure (SMILES) | IC50 |
| --- | --- |
| CN(C)C1C(=O)C(C(N)=O)=C(O)C2(O)C(=O)C3=C(O)c4c(O)cccc4C(C)(O)C3CC12 (stereo not drawn) | 0.67 µM |
| CC[C@H]1OC(=O)C[C@@H](O)[C@H](C)[C@@H](O[C@@H]2O[C@H](C)C[C@H](N(C)C)[C@H]2O)[C@@H](CC=O)C[C@@H](C)C(=O)C=C[C@]2(C)O[C@H]2[C@@H]1C | 10.2 µM |
| CCCCCCCCCCCCCCCCn1cc[n+](C)c1 | 13 µM |
| CN(C)c1ccc(/C=C/c2ccc3c4ccccc4ccc3[n+]2-c2ccccc2)cc1 | 18.8 µM |
| O=C(N/N=C/c1cc([N+](=O)[O-])ccc1O)C1CC1 | 45.2 µM |
| OCc1ccc(O)c2ncccc12 | 146 µM |
| O=C(Oc1ccc[nH]c1=O)c1cc([N+](=O)[O-])cc([N+](=O)[O-])c1 | 79.7 µM |
| CCCc1nnc(NC(=O)c2cn(CC)c3cc(N4CCN(C)CC4)c(F)cc3c2=O)s1 | 109 µM |
| O=C(N/N=C/c1ccc(O)cc1O)C(=O)N/N=C/c1ccc(O)cc1O | 51 µM |
| C=CC1=C(C(=O)O)N2C(=O)[C@@H](NC(=O)/C(=N/OCC(=O)O)c3csc(N)n3)[C@H]2SC1 | 17.9 µM |
| Cc1ccc(-c2csc(NC(=O)C[n+]3cc(-c4ccc(C)cc4)n4c3CCC4)n2)cc1 | 45.2 µM |
| COc1cc([N+](=O)[O-])cc(/C=N\NC(=O)C2COc3ccccc3O2)c1O (stereo not drawn) | 141 µM |
| O=c1[nH]cc(F)c(=O)[nH]1 | 4.17 µM |
| O=C(N/N=C/c1cccc([N+](=O)[O-])c1O)c1cccs1 | 20.4 µM |
| CCCC(=O)NC(c1ccc(N(C)C)cc1)c1ccc2cccnc2c1O (stereo not drawn) | 49.4 µM |
| O=C(N/N=C/c1ccc(Sc2ccccn2)o1)c1cc2ccccc2cc1O | 110 µM |
| C[C@H]1O[C@@H](n2cc(F)c(=O)[nH]c2=O)[C@H](O)[C@@H]1O | 11.8 µM |
| C=CC#CC[N+]1(CC#Cc2ccccc2)CCOCC1 | 30.3 µM |
| CN(C)c1ccc(O)c2c1CC1CC3C(N(C)C)C(=O)C(C(N)=O)=C(O)[C@@]3(O)C(=O)C1=C2O (stereo partly drawn) | 1.54 µM |
| Cc1ccc(C(=O)Sc2cccccc2=O)cc1 | 16.5 µM |
| Nc1nonc1C(=O)N/N=C/c1cc(Br)ccc1O | 13 µM |
| COC(=O)C(C)NC(=S)N1CCN(c2c(F)cc3c(=O)c(C(=O)O)cn(C4CC4)c3c2OC)CC1C (stereo not drawn) | 60.6 µM |
| CNc1cc(Cl)c2nonc2c1[N+](=O)[O-] | 115 µM |
| CC[n+]1c(/C=C/C=C/c2ccc(N(C)C)cc2)sc2ccccc21 | 74 µM |
| NC1=NC[C@H](Cc2ccc(O)cc2)N1CCCCC1CCCCC1 | 84.1 µM |

| Structure (SMILES) | IC50 |
| --- | --- |
| Oc1ccc(/C=N/Nc2nccnc2Cl)c(O)c1 | 63.2 µM |
| CCCCCCCCCCCCCCCC[N+](C)(C)C | 37.9 µM |
| CCC(C)(C)c1ccc(OCCCC[n+]2ccc(C)cc2)c(C(C)(C)CC)c1 | 83.2 µM |
| COc1ccc(Nc2cc(C)c3c(O)cccc3n2)cc1 | 70 µM |
| CCN1/C(=C/C=C/C=C/c2sc3ccccc3[n+]2CC)Sc2ccccc21 | 23.6 µM |
| Oc1c(C(c2ccccn2)N2CCOCC2)ccc2cccnc12 (stereo not drawn) | 118 µM |
| CN(O)/C=c1/ccc2c(n1)C(=O)C=CC=2 | 54.1 µM |
| CCCC(=O)NC(c1ccccc1)c1ccc2cccnc2c1O (stereo not drawn) | 32.1 µM |
| Cc1cc(C(=O)N/N=C/c2ccc(O)c(O)c2O)c(C)n1-c1ccccc1 | 30 µM |
| O=[N+]([O-])c1cc(Cl)c(O)c2ncccc12 | 5.99 µM |
| O=C(NN=C1CCN(Cc2ccccc2)CC1)c1cc2ccccc2cc1O | 128 µM |
| Cc1ccc(C(C[N+](=O)[O-])c2c(N)n(C)c(=O)n(C)c2=O)cc1 (stereo not drawn) | 18.4 µM |
| O=C(C[n+]1cccc(CNC(=O)c2ccc(OC(F)F)cc2)c1)Nc1ccc(SC(F)F)cc1 | 96.3 µM |
| O=[N+]([O-])c1cc(/C=N/Nc2nc3ccccc3[nH]2)c(O)cc1O | 32.5 µM |
| CCOC(=O)c1ccc(-c2ccc(C3Nc4ccccc4C(=O)N3O)o2)cc1 (stereo not drawn) | 112 µM |
| CO[C@H]1/C=C/O[C@@]2(C)Oc3c(C)c(O)c4c(O)c(c(C=NN5CCN(C)CC5)c(O)c4c3C2=O)NC(=O)/C(C)=C\C=C\[C@H](C)[C@H](O)[C@@H](C)[C@@H](O)[C@@H](C)[C@H](OC(C)=O)[C@@H]1C | 10.3 µM |
| O=C(Cn1nc(CNc2ccc(Cl)cc2)[n+]2c1CCCCC2)c1ccc(Br)cc1 | 88.2 µM |
| CCOC(=O)N1CCN(C(=O)c2cn(CC)c3cc(N4CCN(C)CC4)c(F)cc3c2=O)CC1 | 8.51 µM |
| CCn1cc(C(=O)O)c(=O)c2cc(F)c(N3CCN(C(=S)Nc4ccc(OC)cc4)CC3)cc21 | 7.49 µM |
| O=[N+]([O-])c1cc(Cl)c2cccnc2c1O | 1.96 µM |
| CCn1cc(C(=O)O)c(=O)c2cc(F)c(N3CCN(C(=S)NC(=O)c4ccc(OC)cc4)CC3)cc21 | 13.4 µM |
| CN(C)[C@@H]1C(=O)C(C(N)=O)=C(O)[C@@]2(O)C(=O)C3=C(O)c4c(O)cccc4[C@@](C)(O)C3[C@H](O)C12 (stereo partly drawn) | 1.34 µM |
| COc1cc(/C=C/[N+](=O)[O-])ccc1O | 65.1 µM |
